The source of these data is patent US6963012B2, “Diaryl ether derivative, addition salt thereof, and immunosuppressant” (Kyorin Pharmaceutical Co., Ltd., priority 2001, dated 2005).

The structures appear in SMILES notation. Structures can show the parent of a compound that is named as a salt.

In series [1] the test system is Host vs Graft Rejection in Mice. Briefly: Ability of test compounds to suppress host vs graft rejection in mice (popliteal lymph node weight). The class given is in vivo, mice (C3H/HeN, BALB/c stimulation cells). The following applies: Mus musculus. As to the method: Ability of Test Compounds to Suppress Host vs Graft Rejection in Mice
This experiment was performed according to the method described in Transplantation, 55, No.3 (1993): 578-591. Spleens were collected from 9 to 11 week old male BALB/c mice (CLEA JAPAN Inc., CHARLES RIVER JAPAN Inc., or JAPAN SLC Inc.). The spleens were placed in a phosphate-buffered saline (PBS(−), NISSUI PHARMACEUTICAL Co., Ltd.) or in an RPMI-1640 medium (GIBCO […] Inc., or IWAKI GLASS Co., Ltd.) and were either passed through a stainless steel mesh, or gently pressed between two slide glasses and then passed through a cell strainer (70 μm, Falcon), to form a cell suspension. The suspension was then centrifuged and the supernatant was discarded. An ammonium chloride-Tris isotonic buffer was added to the suspension to lyse erythrocytes. The cells were then centrifuged and washed three times in PBS (−) or RPMI-1640 medium and were resuspended in an RPMI-1640 medium. To this suspension, mitomycin C (KYOWA HAKKO KOGYO Co., Ltd.) was added to a final concentration of 25 μg/mL and the suspension was incubated for 30 minutes at 37° C. in a 5% CO2 atmosphere. The cells were again centrifuged and washed in PBS (−) or RPMI-1640 medium and were resuspended in an RPMI-1640 medium so that the medium would contain 2.5×10^8 cells/mL. This suspension served as a “stimulation cell suspension.” Using a 27G needle along with a microsyringe (Hamilton), 20 μL (5×10^6 cells/mouse) of the stimulation cell suspension was subcutaneously injected into the right hind footpad of 7 to 9 week old male C3H/HeN mice (CLEA JAPAN Inc., CHARLES RIVER JAPAN Inc., or JAPAN SLC Inc.). A group of mice was injected with RPMI-1640 medium alone to serve as normal control. 4 days after the injection, right popliteal lymph nodes were collected and were weighed on a Mettler AT201 electronic scale (METTLER TOLEDO Co., Ltd.). Each animal was intraperitoneally administered a test compound once a day for four consecutive days starting on the day of the injection of the stimulation cells (i.e., total of 4 times). Controls were administered a vehicle that has the same composition as that used in the preparation of the test compounds.

Series [2] concerns Delayed-type Hypersensitivity in Mice. Nature of the series: Ability of test compounds to suppress delayed-type hypersensitivity in mice (DNFB, ear thickness). The series is classed as in vivo, mice (BALB/c). The following applies: dose 3 mg/kg, orally, 30 minutes before DNFB challenge; increase in ear thickness 24 hours after the challenge. As to the method:
<Experiment 2> Ability of Test Compounds to Suppress Delayed-type Hypersensitivity in Mice. […] The sensitization was done for 2 consecutive days (day 0 and day 1). On day 5, the ears of the mice were challenged with the antigen to induce delayed-type hypersensitive responses: First, the thickness of each ear was measured by the dial thickness gauge G (0.01-10 mm, OZAKI MFG Co., Ltd.). Next, a test compound was administered. 30 minutes after the administration, 10 μL of a 0.2% (v/v) DNFB solution was applied to the inner and outer surfaces of the right ear of each animal for antigen challenge. The left ear of each animal was challenged with the solvent alone. 24 hours after the challenge, the increase in the ear thickness was measured for each ear and the difference between the right and the left ears was determined for each individual. The test compound was dissolved, or suspended, in an ultra pure water and was orally administered at a dose of 0.1 mL/10 g of body weight. A control group was administered ultra pure water alone.

`Cl.NC(CO)(CO)CCCCc1ccc(Oc2cccc(OCc3ccccc3)c2)cc1Cl`: the melting point (as a rule, the temperature, or range, at which the solid turns liquid) is 95 to 97 °C.
Take `Cl.NC(CO)(CO)C/C=C/c1ccc(Oc2cc(C(F)(F)F)cc(C(F)(F)F)c2)cc1`: the melting point fell in the range of 203 to 206 °C.
On to `Cl.NC(CO)(CO)CCc1ccc(Oc2cccc(OCc3ccccc3)c2)cc1Cl`, for which the melting point fell in the range of 150 to 152 °C.
Compound `Cl.NC(CO)(CO)CCOc1ccc(Oc2cc(C(F)(F)F)cc(C(F)(F)F)c2)cc1` came in with a melting point of 151 to 155 °C.
Compound `Cl.NC(CO)(CO)CCCc1ccc(Oc2cccc(OCCCc3ccccc3)c2)cc1` [Example 148, 2-amino-2-[4-(3-phenylpropyloxyphenoxy)phenyl]propyl-1,3-propanediol hydrochloride] had a melting point of 95 to 98 °C. Also, in series [1], the inhibition – broadly, the percentage by which the read-out fell short of the control – at 3 mg/kg was 78%.
As to `Cl.NC(CO)(CO)CCCc1ccc(Oc2cc(C(F)(F)F)cc(C(F)(F)F)c2)cc1` [Example 147, 2-amino-2-[4-(3,5-bistrifluoromethylphenoxy)phenyl]propyl-1,3-propanediol hydrochloride], the melting point was in the range of 194 to 196 °C. For the same compound, in series [1], the inhibition at 10 mg/kg was found to be 82%.
Take `CC(C)c1cccc(Oc2ccc(CCCC(N)(CO)CO)cc2)c1` [Example 150, 2-amino-2-[4-(3-isopropylphenoxy)phenyl]propyl-1,3-propanediol hydrochloride]: in series [1], the inhibition at 10 mg/kg amounted to 78%.
In the case of `Cl.NC(CO)(CO)CCCc1ccc(Oc2cccc(OCc3ccccc3)c2)cc1Cl` [Example 173, 2-amino-2-[4-(3-benzyloxyphenoxy)-2-chlorophenyl]propyl-1,3-propanediol hydrochloride], the melting point fell in the range of 105 to 106 °C. The inhibition at 3 mg/kg in series [1] was found to be 100%. For the same compound, the Inhibition (in general, the change of the read-out against control, counted positive when it falls) in series [2] worked out at 64%.
